From ChEMBL document CHEMBL4834435, “Discovery of Potent Coumarin-Based Kinetic Stabilizers of Amyloidogenic Immunoglobulin Light Chains Using Structure-Based Design” (J Med Chem, 2021) come the findings set out here.

In data set [1] the target is Immunoglobulin lambda variable 6-57 (Homo sapiens, UniProt P01721, F49Y/T46L). In words: Stabilization of AL patient derived fluorescein-labeled IGLV6-57 T46L/F49Y mutant measured after 24 hrs by proteolysis coupled-fluorescence polarization assay. For orientation: In fluorescence polarisation assays a small probe gives low polarisation when free and higher when bound to something large.
Immunoglobulin lambda variable 6-57 (Homo sapiens, UniProt P01721, F49Y/T46L), sequence (P01721 whole entry, looked up, stated change not applied): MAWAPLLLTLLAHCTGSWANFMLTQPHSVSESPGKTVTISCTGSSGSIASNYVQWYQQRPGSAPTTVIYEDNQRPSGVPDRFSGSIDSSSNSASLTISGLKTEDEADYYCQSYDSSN

Data set [2] concerns the target Immunoglobulin lambda variable 6-57 (Homo sapiens, UniProt P01721). In words: Stabilization of AL patient derived full length fluorescein-labeled IGLV6-57 expressed in Escherichia coli BL21 (DE3) measured after 24 hrs by proteolysis coupled-fluorescence polarization assay.
Data set [3] is described as follows: Protein binding in human plasma at 2 uM after 4 hrs by UPLC-MS/MS analysis. The format is ADME, cell-free.
Data set [4] is described as follows: Solubility of the compound. The format is physicochemical.

Immunoglobulin lambda variable 6-57 (Homo sapiens, UniProt P01721), sequence (P01721 whole entry): as the sequence (P01721 whole entry, looked up, stated change not applied) above

Turning to `CCN(CC)c1ccc2c(C)c(CCN3C(=O)NC4(CCN(c5ncnc6[nH]cnc56)C4)C3=O)c(=O)oc2c1` (stereo not given), the EC50 was 0.355 µM in data set [1] and 0.551 µM in data set [2].
Regarding `CCN(CC)c1ccc2c(C)c(CCN3C(=O)NC4(CCN(C(=O)c5ccc[nH]c5=O)CC4)C3=O)c(=O)oc2c1`, the EC50 in data set [1] was 2.7 µM; in data set [2], 3.97 µM.
The like results for `CCN(CC)c1ccc2c(C)c(CCN3C(=O)NC4(CCN(S(=O)(=O)c5cccnc5)C4)C3=O)c(=O)oc2c1` (stereo not given) were, in that order, 4.37 µM and 0.313 µM.
The like results for `CCN(CC)c1ccc2c(C)c(CCOC(=O)NCc3cccc(C(N)=O)c3)c(=O)oc2c1` were, in that order, 0.228 µM and 0.15 µM.
The like results for `CCN(CC)c1ccc2c(C)c(CCOC(=O)NCc3ccccc3)c(=O)oc2c1` were, in that order, 0.317 µM and 0.302 µM.
For the compound `CCN(c1ccc2c(C)cc(=O)oc2c1)C(C)C`, the EC50 in data set [2] was 9.7 µM.
Take `CCN(CC)c1ccc2c(C)c(CCOC(=O)NCc3cccc(-c4ccc[nH]c4=O)c3)c(=O)oc2c1`: the EC50 in data set [1] came to 0.0262 µM; in data set [2], 0.151 µM.
Take `CCN(CC)c1ccc2c(C)c(CCN3C(=O)NC4(CCN(c5ncccn5)C4)C3=O)c(=O)oc2c1` (stereo not given): the figures for the EC50 in data set [1] and in data set [2] were 0.688 µM and 1.37 µM, respectively.
Consider `Cc1cc(=O)oc2cc(OC(C)Cc3ccccc3)ccc12` (stereo not given), for which the EC50 in data set [1] came out at 1.38 µM; in data set [2], 2.97 µM.
For the compound `CCCN(CC)c1ccc2c(C)cc(=O)oc2c1`, in data set [2], the EC50 stood at 7.89 µM.
Regarding `Cc1c(CCN2CC3(CCN(c4nccn5ccnc45)CC3)NC2=O)c(=O)oc2cc(OCC(C)c3ccccc3)ccc12` (stereo in doubt; 84b), the figures for the EC50 in data set [1] and in data set [2] were 0.0039 µM and 0.0115 µM, respectively.
`CCN(C)c1ccc2c(C)cc(=O)oc2c1` returned an EC50 in data set [2] of 18 µM.
On to `CCN(CC)c1ccc2c(C)c(CCOC(=O)NCc3cncc(NC(C)=O)c3)c(=O)oc2c1`, for which the EC50 in data set [1] worked out at 1.17 µM; in data set [2] it was 0.816 µM.
The like results for `CCN(CC)c1ccc2c(C)c(CCN3CC4(CCN(c5ncnc6[nH]ncc56)CC4)NC3=O)c(=O)oc2c1` were, in that order, 0.0047 µM and 0.0088 µM.
The like results for `CCN(CC)c1ccc2c(C)c(CCOC(=O)NCc3cccc(NC(C)=O)c3)c(=O)oc2c1` were, in that order, 0.194 µM and 0.289 µM.
The compound `CCN(CC)c1ccc2c(C)c(CCN3C(=O)NC4(CCN(C(=O)c5ccc[nH]c5=O)C4)C3=O)c(=O)oc2c1` (stereo not given) gave an EC50 in data set [1] of 3.96 µM.
Turning to `CCN(CC)c1ccc2c(C)c(CCN3C(=O)NC4(CCN(c5nccn6ccnc56)CC4)C3=O)c(=O)oc2c1`, the figures for the EC50 in data set [1] and in data set [2] were 0.0298 µM and 0.0624 µM, respectively.
The like results for `CCN(CC)c1ccc2c(C)c(CCOC(=O)NCC3CCCNC3)c(=O)oc2c1` (stereo not given) were, in that order, 8.8 µM and 1.69 µM.
On to `CCN(CC)c1ccc2c(C)c(CCN3C(=O)NC4(CCN(c5ncnc6[nH]cnc56)CC4)C3=O)c(=O)oc2c1`, for which the EC50 amounted to 0.046 µM in data set [1] and 0.11 µM in data set [2].
`Cc1c(CCN2CC3(CCN(c4nccn5ccnc45)CC3)NC2=O)c(=O)oc2cc(OCC(C)c3ccccc3)ccc12` (stereo in doubt; 84a): the EC50 was 0.0083 µM in data set [1] and 0.0086 µM in data set [2].
The like results for `CCN(CC)c1ccc2c(C)c(CCN3C(=O)NC4(CCN(S(=O)(=O)c5ccccc5)C4)C3=O)c(=O)oc2c1` (stereo not given) were, in that order, 0.648 µM and 0.207 µM.
`C#CCN(CC)c1ccc2c(C)cc(=O)oc2c1` displayed an EC50 in data set [2] of 2.65 µM.
As to `CCN(CC)c1ccc2c(C)c(CCOC(=O)N(C)CCc3cccnc3)c(=O)oc2c1`, the figures for the EC50 in data set [1] and in data set [2] were over 20 µM and 5.28 µM, respectively.
In the case of `CCN(CC)c1ccc2c(C)c(CCN3CC4(CCN(c5nccn6ccnc56)CC4)NC3=O)c(=O)oc2c1`, the results for the EC50 in data set [1] and in data set [2] were 0.0049 µM and 0.0356 µM, respectively. Also, the PPB in data set [3] is over 99.5%.
In the case of `CCN(CC)c1ccc2c(C)c(CCN3C(=O)NC4(CCN(c5ncccn5)CC4)C3=O)c(=O)oc2c1`, the EC50 in data set [1] came out at 0.165 µM; in data set [2] it was 0.292 µM.
For `C#CCN(CC#C)c1ccc2c(C)cc(=O)oc2c1`, the EC50 in data set [2] came out at 2 µM.
Turning to `CCN(CC)c1ccc2c(C)c(CCN3CC4(CCN(c5ncccn5)CC4)NC3=O)c(=O)oc2c1`, the figures for the EC50 in data set [1] and in data set [2] were 0.0135 µM and 0.0481 µM, respectively.
The like results for `CCN(CC)c1ccc2c(C)c(CCN3C(=O)NC4(CCN(c5ncnc6[nH]ncc56)CC4)C3=O)c(=O)oc2c1` were, in that order, 0.124 µM and 0.103 µM.
For `Cc1ccccc1C(C)Oc1ccc2c(C)cc(=O)oc2c1` (racemic), the solubility result in data set [4] is reported as “Nd(Insoluble)”.
As to `CCN(CC)c1ccc2c(C)c(CCN3C(=O)NC4(CCN(c5nccn6ncnc56)CC4)C3=O)c(=O)oc2c1`, the EC50 in data set [1] was found to be 0.0552 µM; in data set [2] it was 0.0711 µM.
Regarding `Cc1cc(=O)oc2cc(OCC(C)c3ccccc3)ccc12` (stereo not given), the EC50 in data set [1] came out at 0.444 µM; in data set [2], 0.558 µM.
Take `CCN(CC)c1ccc2c(C)c(CCOC(=O)NCCc3cccnc3)c(=O)oc2c1`: the EC50 in data set [1] was 3.68 µM; in data set [2] it was 1.11 µM.
Regarding `CCN(CC)c1ccc2c(C)c(CCN3C(=O)NC4(CCN(C(=O)c5c[nH]cn5)C4)C3=O)c(=O)oc2c1` (stereo not given), the EC50 came out at 0.729 µM in data set [1] and 0.855 µM in data set [2].
